pIC50: −log10 of the molar value.
Columns and labels:
[1] = biological target: T1, butyrylcholine esterase (BuChE) (Mus musculus, UniProt Q03311); assay: In vitro assay for choline esterase inhibition (Ellman method), butyrylthiocholine substrate, mouse serum; assay type: biochemical; conditions: for Ratio AChE/BuChE: selectivity for BuChE inhibition: IC50 (AchE)/IC50 (BuChE)
T1 construct: brain homogenate and serum of mouse were used as choline esterase enzyme sources; from tissue; host or cells: mouse serum
Method in brief: (§1)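 Enzyme sources were mouse brain homogenate for AChE (acetylthiocholine substrate) and mouse serum for BuChE (butyrylthiocholine substrate). Compounds were diluted in DMSO and incubated with substrate and DTNB, and the thiocholine–DTNB product was read at 415 nm (Ellman method). Selectivity was taken as IC50(AChE)/IC50(BuChE).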

[2] = biological target: T2, acetylcholine esterase (AChE) (Mus musculus, UniProt P21836); assay: In vitro assay for choline esterase inhibition (Ellman method), acetylthiocholine substrate, mouse brain homogenate; assay type: biochemical
T2 construct: brain homogenate and serum of mouse were used as choline esterase enzyme sources; from tissue; host or cells: mouse brain homogenate
T2 sequence (P21836 32-614): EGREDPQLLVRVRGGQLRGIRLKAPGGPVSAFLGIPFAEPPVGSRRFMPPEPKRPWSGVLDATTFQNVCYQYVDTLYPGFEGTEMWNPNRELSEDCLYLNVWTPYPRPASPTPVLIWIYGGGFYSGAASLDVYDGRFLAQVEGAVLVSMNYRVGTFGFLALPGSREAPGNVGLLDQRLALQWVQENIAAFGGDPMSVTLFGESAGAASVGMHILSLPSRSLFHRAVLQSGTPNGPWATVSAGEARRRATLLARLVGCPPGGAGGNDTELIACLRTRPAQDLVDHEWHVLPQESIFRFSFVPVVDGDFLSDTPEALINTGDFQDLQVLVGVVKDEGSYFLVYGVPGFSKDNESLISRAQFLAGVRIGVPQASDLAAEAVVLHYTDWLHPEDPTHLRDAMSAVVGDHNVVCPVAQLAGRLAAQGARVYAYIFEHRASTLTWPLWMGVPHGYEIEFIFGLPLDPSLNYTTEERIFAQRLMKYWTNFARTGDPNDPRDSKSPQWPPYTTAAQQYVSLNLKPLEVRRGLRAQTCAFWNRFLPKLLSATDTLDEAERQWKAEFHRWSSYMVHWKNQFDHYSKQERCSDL
Method in brief: as §1

T1 sequence (Q03311 30-603): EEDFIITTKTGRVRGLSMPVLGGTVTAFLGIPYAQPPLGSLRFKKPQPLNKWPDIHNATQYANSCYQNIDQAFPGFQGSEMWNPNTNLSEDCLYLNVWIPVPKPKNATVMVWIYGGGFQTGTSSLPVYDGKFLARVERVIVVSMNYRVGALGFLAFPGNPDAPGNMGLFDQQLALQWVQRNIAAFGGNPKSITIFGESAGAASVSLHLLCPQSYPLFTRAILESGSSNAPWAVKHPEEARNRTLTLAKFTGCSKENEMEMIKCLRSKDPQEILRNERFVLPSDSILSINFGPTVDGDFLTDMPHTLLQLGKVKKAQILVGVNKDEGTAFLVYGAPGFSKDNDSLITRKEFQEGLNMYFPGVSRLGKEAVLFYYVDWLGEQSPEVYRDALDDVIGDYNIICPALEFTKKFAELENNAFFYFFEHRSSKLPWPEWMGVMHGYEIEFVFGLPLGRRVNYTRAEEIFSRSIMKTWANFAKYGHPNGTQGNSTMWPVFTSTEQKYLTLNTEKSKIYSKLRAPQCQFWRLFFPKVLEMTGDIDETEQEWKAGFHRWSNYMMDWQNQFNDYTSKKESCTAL

| Structure (SMILES) | melting point [°C] | further results |
| --- | --- | --- |
| O=C(Nc1ccc(-c2ccccc2)cc1)Oc1ccc2c(c1)CCN2Cc1ccccc1 | 175 to 178 | – |
| O=C(Nc1ccccc1)Oc1ccc2c(c1)CCN2Cc1ccccc1 | 105 to 112 | – |
| CNC(=O)Oc1ccc2c(c1)CCN2 | 109 to 112 | – |
| O=C(Nc1ccc(Oc2ccccc2)cc1)Oc1ccc2c(c1)CCN2Cc1ccccc1 | 155 to 160 | – |
| COc1ccc(NC(=O)Oc2ccc3c(c2)CCN3)cc1 | 220 to 224 | – |
| COc1ccc(NC(=O)Oc2ccc3c(c2)CCN3)cc1OC | 140 to 144 | – |
| O=C(NCC1CCCCC1)Oc1ccc2c(c1)CCN2 | 129 to 133 | – |
| CCCN(CCC)C(=O)C1Cc2cc(OC(=O)Nc3ccc(C(C)C)cc3)ccc2N1Cc1ccccc1 (centres unmarked) | 62 to 66 | – |
| O=C(Nc1ccc([N+](=O)[O-])cc1)Oc1ccc2c(c1)CCN2Cc1ccccc1 | 225 to 229 | – |
| CC(C)c1ccc(NC(=O)Oc2ccc3c(c2)CCN3)cc1 | 166 to 170 | – |
| O=C(Nc1ccc2ccccc2c1)Oc1ccc2c(c1)CCN2Cc1ccccc1 | 161 to 167 | – |
| COC(=O)c1ccc(CN2CCc3cc(OC(=O)Nc4ccc(C(C)C)cc4)ccc32)cc1 | 149 to 153 | – |
| CC(C)c1ccc(NC(=O)Oc2ccc3c(c2)CCN3Cc2ccc3ccccc3c2)cc1 | 136 to 140 | – |
| CC(C)c1ccc(NC(=O)Oc2ccc3c(c2)CCN3Cc2ccco2)cc1 | 168 to 171 | – |
| COc1cc(CN2CCc3cc(OC(=O)Nc4ccc(C(C)C)cc4)ccc32)ccc1N(C)C | 152 to 153 | – |
| CC(C)c1ccc(NC(=O)Oc2ccc3c(c2)CCN3Cc2ccc(O)c(Cl)c2)cc1 | 170 to 174 | – |
| CC(C)c1ccc(NC(=O)Oc2ccc3c(c2)CCN3Cc2cc(N(C)C)c3ccccc3c2)cc1 | 75 to 80 | – |
| CC(C)c1ccc(NC(=O)Oc2ccc3c(c2)CCN3Cc2cccc3ncccc23)cc1 | 195 to 199 | – |
| CC(C)c1ccc(NC(=O)Oc2ccc3c(c2)CCN3Cc2ccc3ccccc3n2)cc1 | 150 to 152 | – |
| CC(C)c1ccc(NC(=O)Oc2ccc3c(c2)CCN3Cc2ccc3cc[nH]c3c2)cc1 | 194 to 196 | – |
| O=C(Nc1ccc(C2CCCCC2)cc1)Oc1ccc2c(c1)CCN2Cc1ccccc1 | 171 to 174 | – |
| O=C(Nc1ccncc1)Oc1ccc2c(c1)CCN2Cc1ccccc1 | 132 to 136 | – |
| CN(CC1CCOCC1)C(=O)Oc1ccc2c(c1)C(C)(C)CN2Cc1ccncc1 [Example 220, N-methyl-O-[1-(4-pyridylmethyl)-3,3-dimethylindolin-5-yl]-N-(4-tetrahydropyranylmethyl)carbamate] | – | pIC50 [1]: 8.72; Ratio AChE/BuChE [1]: 11000; selectivity to butyrylcholinesterase (BuChE versus AChE inhibitory activity), in words ([1]; summary of Tables 1-3): much higher; pIC50 [2]: 4.68 |
| CN(C)C(=O)Oc1ccc2c(c1)CCN2Cc1ccccc1 [Example 221, N,N-dimethyl-O-(1-benzylindolin-5-yl)carbamate] | – | pIC50 [1]: 6.77; Ratio AChE/BuChE [1]: 76; pIC50 [2]: 4.89 |

— patent publication US8686024B2, “Indoline derivatives” (priority 2009, dated 2014)
